This is an account of results in patent US7723380B2, “Antiviral protease inhibitors” (Gilead Sciences, Inc., priority 2006, dated 2010).

The assay has as its target T1, recombinant HIV-1 protease expressed in E. Coli (Human immunodeficiency virus type 1 group M subtype B, UniProt P04585).
T1 construct: Enzyme: recombinant HIV-1 protease expressed in E. Coli; purchased Bachem California, Inc. (Torrance, Calif.) H-9040; host or cells: E. coli
The experiment in a line: HIV-1 Protease Enzyme Assay (Ki), fluorimetric detection of hexapeptide substrate cleavage. The assay is classed as biochemical. As to conditions: recombinant HIV-1 protease 1 to 2.5 nM, substrate 40 μM, pH 5.3, 37° C., tight-binding competitive inhibition. The text has this:
Biological Assays Used for the Characterization of HIV Protease Inhibitors HIV-1 Protease Enzyme Assay (Ki)
The assay is based on the fluorimetric detection of synthetic hexapeptide substrate cleavage by HIV-1 protease in a defined reaction buffer as initially described by M. V. Toth and G. R. Marshall, Int. J. Peptide Protein Res. 36, 544 (1990)
Substrate: (2-aminobenzoyl)Thr-Ile-Nle-(p-nitro)Phe-Gln-Arg
Substrate supplied by Bachem California, Inc. (Torrance, Calif.; Cat. no. H-2992)
Enzyme: recombinant HIV-1 protease expressed in E. Coli
Enzyme supplied by Bachem California, Inc. (Torrance, Calif.; Cat. no. H-9040)
Reaction buffer: 100 mM ammonium acetate, pH 5.3
• 1 M sodium chloride • 1 mM ethylendiaminetetraacetic acid • 1 mM dithiothreitol • 10% dimethylsulfoxide Assay Protocol for the Determination of Inhibition Constant Ki: • 1. Prepare series of solutions containing identical amount of the enzyme (1 to 2.5 nM) and a tested inhibitor at different concentrations in the reaction buffer • 2. Transfer the solutions (190 μL each) into a white 96-well plate • 3. Preincubate for 15 min at 37° C. • 4. Solubilize the substrate in 100% dimethylsulfoxide at a concentration of 800 μM. Start the reaction by adding 10 μL of 800 μM substrate into each well (final substrate concentration of 40 μM) • 5. […]

Turning to `CCOP(=O)(COc1ccc(C[C@H](NC(=O)O[C@H]2CO[C@H]3OCC[C@H]32)[C@@H](O)CN(Cc2ccc(-c3ccccn3)cc2)NC(=O)[C@@H](NC(=O)OC)C(C)(C)C)cc1)OCC` [Example AY], the Ki is less than 30 pM.
